Experimental data published in PubChem BioAssay AID2060599 (Molecular Pharmacology Branch, DTP, NCI, 2025).
Several values for one entry are separate records, joined by “and”; a condition that tells them apart may be missing. Equal values may be shown once.

system: 817829-284-R-J1-PDC complex spheroids, viability; experiment: Anticancer human tumor 817829-284-R-J1-PDC patient-derived colon adenocarcinoma cell line growth inhibition [CLK]; details: compound 0.3 µM; stronger effect = lower value
Excerpt: A high-throughput screen of multi-cell type tumor spheroids was designed to identify active combinations of […] and targeted small molecules. Complex spheroids include a stromal component modeled by human endothelial cells (HUVEC) and fibroblasts modeled by human mesenchymal stem cells (MSCs). The concentration ranges selected for each drug and investigational agent were based upon clinically achievable concentrations if the clinical Cmax of the agent was known.
Compounds. The drugs and investigational agents: cirtuvivint (SM08502; NSC835563), CC-671 (NSC850746), vemurafenib (NSC761431), tapotoclax (NSC804041), sotorasib (NSC818433), adagrasib (NSC831453), MRTX-1133 (NSC836407), BAY2416964 (NSC825713), copanlisib (NSC816437), inavolisib (NSC800729), abemaciclib (NSC768073), osimertinib (NSC779217), entinostat (NSC756642), eltanexor (KPT-8602, NSC794443), venetoclax (NSC766270), ceralasertib (NSC777638), bortezomib (NSC756655), olaparib (NSC753686), talazoparib (NSC767125), alisertib (NSC759677), peposertib (NSC802822), gemcitabine (NSC613327), 5-fluorouracil (NSC19893), SN-38 (NSC673596), oxaliplatin (NSC266046), paclitaxel (NSC125973), and doxorubicin (NSC123127), were obtained from the National Cancer Institute (NCI) Developmental Therapeutics Program Chemical Repository. The FDA-approved anticancer drug set is available from the Developmental Therapeutics Program at https://dtp.cancer.gov/organization/dscb/obtaining/available plates.htm. […] The stock solutions were prepared in dimethyl sulfoxide (DMSO, Sigma-Aldrich, St. Louis, MO, cat. D2650), except for the platinum complexes which were prepared in saline (Quality Biological, Gaithersburg, MD, cat. 114-055-101), at 800-fold the tested concentration and stored at -70 degrees C prior to their use. All drugs and investigational agents were tested over a range starting from a high concentration at or near the clinical Cmax and decreasing in half-log increments. If the clinical Cmax for an agent had not been determined, the highest concentration tested was 10 microM.
Cell Culture. All cells were maintained in an incubator at 37 degrees C and 5% CO2 with 95% humidity. The PDC lines were cultured according to standard operating procedures established by the NCI PDMR. Briefly, all PDCs were thawed and cultured in Matrigel-coated flasks prepared with a working solution of 1X Ham's F-12 nutrient mix, without supplementation (Invitrogen, Waltham, MA, cat. 11765054), 100 U/mL penicillin-streptomycin (Invitrogen, cat. 15140122), and 2.5% Matrigel (Corning Inc., Corning, NY, cat. 354248) for the first three passages. The 947758-054-R-J2-PDC line was cultured in 6B/Colon 1A media, which includes advanced DMEM/F-12 (Thermo Fisher Scientific, cat. 12634028), 10 mM HEPES (Thermo Fisher Scientific, cat. 15630080), 1X GlutaMAX supplement (Thermo Fisher Scientific, cat. 35050061), 0.1 mg/mL primocin (InvivoGen, cat. ant-pm-2), 10% defined fetal bovine serum, heat inactivated (HyClone Laboratories Inc., cat. SH30070.03HI), 1.25 mM N-Acetyl-L-cysteine (Sigma-Aldrich, cat. A9165), 10 mM nicotinamide (Sigma-Aldrich, cat. N0636), 1X B-27 supplement (Thermo Fisher Scientific, cat. 17504044), 1X N-2 supplement (Thermo Fisher Scientific, cat. 17502048), and 10 microM Y-27632 dihydrochloride (Tocris Bioscience, cat. 1254). The 876862-298-R-J1-PDC was cultured in 6E media, which includes all 6B/Colon 1A media components plus 50% L-WRN conditioned media (ATCC, cat. CRL-3276), 50 ng/mL recombinant human EGF recombinant protein (hEGF; Thermo Fisher Scientific, cat. PHG0311), 10 ng/mL recombinant human fibroblast growth factor 10 (hGFG-10; PeproTech, cat. 100-26), 1 ng/mL recombinant human fibroblast growth factor 2 (hFGF-2; PeproTech, cat. 100-18B), and 1 µM prostaglandin E2 (PGE2; Tocris, cat. 2296). The 227483-062-R1-J1-PDC line was cultured in Panc media, containing all 6E components except hFGF-2, with the addition of 500 nM SB-431542 (Selleckchem, cat. S1067) and 10 nM gastrin (Tocris, cat. 3006). […]
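Further: spheroids exposed to the agents for seven days before readout.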

| Structure (SMILES) | viability, T/C |
| --- | --- |
| NC(=O)C(=Cn1cnc(-c2cc(C(F)(F)F)cc(C(F)(F)F)c2)n1)c1cncnc1 | 8.78% |

same assay, conditions: compound 0.316 µM; stronger effect = lower value

| Structure (SMILES) | viability, T/C |
| --- | --- |
| C=C(F)C(=O)N1CCN(c2nc(OCC3CCCN3C)nc3c2CCN(c2cccc4cccc(Cl)c24)C3)CC1CC#N (stereo unspecified) | 141% and 96.3% |
| C=CC(=O)N1CCN(c2nc(=O)n(-c3c(C)ccnc3C(C)C)c3nc(-c4c(O)cccc4F)c(F)cc23)C(C)C1 (stereo unspecified) | 101% and 92.9% |
| CCCS(=O)(=O)Nc1ccc(F)c(C(=O)c2c[nH]c3ncc(-c4ccc(Cl)cc4)cc23)c1F | 66% and 89% |
| CCN1CCN(Cc2ccc(Nc3ncc(F)c(-c4cc(F)c5nc(C)n(C(C)C)c5c4)n3)nc2)CC1 | 85.4% |
| CCc1c2c(nc3ccc(O)cc13)-c1cc3c(c(=O)n1C2)COC(=O)[C@]3(O)CC | 6.24% and 7.57% |
| CN1CCN(c2cc(C(=O)Nc3cc4cc(-c5cnn(C)c5)ccc4cn3)ccn2)CC1 | 2.17% [middle of 12 runs] |
| CNC(=O)c1ccc(Nc2nc(OC3CCCC3)c3c(-c4ccc5nc(C)oc5c4)c[nH]c3n2)c(OC)c1 | 26.3% [middle of 8 runs] |
| COC1C=CCC(C)C(C)S(=O)(=O)NC(=O)c2ccc3c(c2)N(CC2CCC21)CC1(CCCc2cc(Cl)ccc21)CO3 (stereo unspecified) | 90.7% and 66.9% |
| COc1c(OCCCN2CCOCC2)ccc2c3n(c(=NC(=O)c4cnc(N)nc4)nc12)CCN3 | 7.17% and 4.92% |

same assay, conditions: compound 0.949 µM; stronger effect = lower value

| Structure (SMILES) | viability, T/C |
| --- | --- |
| NC(=O)C(=Cn1cnc(-c2cc(C(F)(F)F)cc(C(F)(F)F)c2)n1)c1cncnc1 | 3.63% |

same assay, conditions: compound 1 µM; stronger effect = lower value

| Structure (SMILES) | viability, T/C |
| --- | --- |
| C=C(F)C(=O)N1CCN(c2nc(OCC3CCCN3C)nc3c2CCN(c2cccc4cccc(Cl)c24)C3)CC1CC#N (stereo unspecified) | 77.1% and 84.6% |
| C=CC(=O)N1CCN(c2nc(=O)n(-c3c(C)ccnc3C(C)C)c3nc(-c4c(O)cccc4F)c(F)cc23)C(C)C1 (stereo unspecified) | 100% |
| CCCS(=O)(=O)Nc1ccc(F)c(C(=O)c2c[nH]c3ncc(-c4ccc(Cl)cc4)cc23)c1F | 54.1% and 77% |
| CCN1CCN(Cc2ccc(Nc3ncc(F)c(-c4cc(F)c5nc(C)n(C(C)C)c5c4)n3)nc2)CC1 | 39.3% |
| CCc1c2c(nc3ccc(O)cc13)-c1cc3c(c(=O)n1C2)COC(=O)[C@]3(O)CC | 3.66% and 4.31% |
| CN1CCN(c2cc(C(=O)Nc3cc4cc(-c5cnn(C)c5)ccc4cn3)ccn2)CC1 | 0.13% [middle of 8 runs] |
| CNC(=O)c1ccc(Nc2nc(OC3CCCC3)c3c(-c4ccc5nc(C)oc5c4)c[nH]c3n2)c(OC)c1 | 24.2% [middle of 8 runs] |
| COC1C=CCC(C)C(C)S(=O)(=O)NC(=O)c2ccc3c(c2)N(CC2CCC21)CC1(CCCc2cc(Cl)ccc21)CO3 (stereo unspecified) | 91.7% and 93.4% |
| COc1c(OCCCN2CCOCC2)ccc2c3n(c(=NC(=O)c4cnc(N)nc4)nc12)CCN3 | 2.06% and 2.01% |

same assay, conditions: compound 3 µM; stronger effect = lower value

| Structure (SMILES) | viability, T/C |
| --- | --- |
| NC(=O)C(=Cn1cnc(-c2cc(C(F)(F)F)cc(C(F)(F)F)c2)n1)c1cncnc1 | 2.66% |

same assay, conditions: compound 3.16 µM; stronger effect = lower value

| Structure (SMILES) | viability, T/C |
| --- | --- |
| C=C(F)C(=O)N1CCN(c2nc(OCC3CCCN3C)nc3c2CCN(c2cccc4cccc(Cl)c24)C3)CC1CC#N (stereo unspecified) | 20.8% and 21.4% |
| C=CC(=O)N1CCN(c2nc(=O)n(-c3c(C)ccnc3C(C)C)c3nc(-c4c(O)cccc4F)c(F)cc23)C(C)C1 (stereo unspecified) | 101% |
| CCCS(=O)(=O)Nc1ccc(F)c(C(=O)c2c[nH]c3ncc(-c4ccc(Cl)cc4)cc23)c1F | 52.5% and 59.8% |
| CN1CCN(c2cc(C(=O)Nc3cc4cc(-c5cnn(C)c5)ccc4cn3)ccn2)CC1 | 0.17% [middle of 7 runs] |
| CNC(=O)c1ccc(Nc2nc(OC3CCCC3)c3c(-c4ccc5nc(C)oc5c4)c[nH]c3n2)c(OC)c1 | 20.1% [middle of 8 runs] |
| COC1C=CCC(C)C(C)S(=O)(=O)NC(=O)c2ccc3c(c2)N(CC2CCC21)CC1(CCCc2cc(Cl)ccc21)CO3 (stereo unspecified) | 65.8% and 79% |

same assay, conditions: compound 10 µM; stronger effect = lower value

| Structure (SMILES) | viability, T/C |
| --- | --- |
| C=C(F)C(=O)N1CCN(c2nc(OCC3CCCN3C)nc3c2CCN(c2cccc4cccc(Cl)c24)C3)CC1CC#N (stereo unspecified) | 0.08% and 0.14% |
| C=CC(=O)N1CCN(c2nc(=O)n(-c3c(C)ccnc3C(C)C)c3nc(-c4c(O)cccc4F)c(F)cc23)C(C)C1 (stereo unspecified) | 57% and 87.9% |
| CCCS(=O)(=O)Nc1ccc(F)c(C(=O)c2c[nH]c3ncc(-c4ccc(Cl)cc4)cc23)c1F | 25.3% and 16.9% |
| CN1CCN(c2cc(C(=O)Nc3cc4cc(-c5cnn(C)c5)ccc4cn3)ccn2)CC1 | 0.13% [middle of 8 runs] |
| CNC(=O)c1ccc(Nc2nc(OC3CCCC3)c3c(-c4ccc5nc(C)oc5c4)c[nH]c3n2)c(OC)c1 | 23.3% [middle of 8 runs] |
| COC1C=CCC(C)C(C)S(=O)(=O)NC(=O)c2ccc3c(c2)N(CC2CCC21)CC1(CCCc2cc(Cl)ccc21)CO3 (stereo unspecified) | 8.51% and 6.66% |

same assay, conditions: compound alone; run of 08/14/2023

| Structure (SMILES) | IC50 |
| --- | --- |
| CN1CCN(c2cc(C(=O)Nc3cc4cc(-c5cnn(C)c5)ccc4cn3)ccn2)CC1 | 49.5 nM [middle of 12 runs] |

same assay, conditions: compound alone; run of 08/15/2023

| Structure (SMILES) | IC50 |
| --- | --- |
| CNC(=O)c1ccc(Nc2nc(OC3CCCC3)c3c(-c4ccc5nc(C)oc5c4)c[nH]c3n2)c(OC)c1 | < 31.6 nM |

same assay, conditions: curve of compound

| Structure (SMILES) | IC50 |
| --- | --- |
| C=C(F)C(=O)N1CCN(c2nc(OCC3CCCN3C)nc3c2CCN(c2cccc4cccc(Cl)c24)C3)CC1CC#N (stereo unspecified) | 1770 nM and 1850 nM |
| C=CC(=O)N1CCN(c2nc(=O)n(-c3c(C)ccnc3C(C)C)c3nc(-c4c(O)cccc4F)c(F)cc23)C(C)C1 (stereo unspecified) | > 10000 nM |
| C=CC(=O)Nc1cc(Nc2nccc(-c3cn(C)c4ccccc34)n2)c(OC)cc1N(C)CCN(C)C | > 300 nM |
| CC(C)CC(NC(=O)C(Cc1ccccc1)NC(=O)c1cnccn1)B(O)O (stereo unspecified) | 1.51 nM and 1.63 nM |
| CCCS(=O)(=O)Nc1ccc(F)c(C(=O)c2c[nH]c3ncc(-c4ccc(Cl)cc4)cc23)c1F | 1210 nM and 4110 nM |
| CCN1CCN(Cc2ccc(Nc3ncc(F)c(-c4cc(F)c5nc(C)n(C(C)C)c5c4)n3)nc2)CC1 | > 1000 nM |
| CCc1c2c(nc3ccc(O)cc13)-c1cc3c(c(=O)n1C2)COC(=O)[C@]3(O)CC | < 3.16 nM |
| COC1C=CCC(C)C(C)S(=O)(=O)NC(=O)c2ccc3c(c2)N(CC2CCC21)CC1(CCCc2cc(Cl)ccc21)CO3 (stereo unspecified) | 4090 nM and 5030 nM |
| COc1c(OCCCN2CCOCC2)ccc2c3n(c(=NC(=O)c4cnc(N)nc4)nc12)CCN3 | 11.9 nM and 24.8 nM |
| Cn1ncnc1[C@H]1c2n[nH]c(=O)c3cc(F)cc(c23)N[C@@H]1c1ccc(F)cc1 | 3.4 nM and 22.6 nM |
| NC(=O)C(=Cn1cnc(-c2cc(C(F)(F)F)cc(C(F)(F)F)c2)n1)c1cncnc1 | 15.7 nM |
